Measurements: ChEMBL document CHEMBL3217615, “Novel 3,5-bis(arylidiene)-4-piperidone based monocarbonyl analogs of curcumin: anticancer activity evaluation and mode of action study” (2014)

Tests used:
Type in all cases: functional
COLO 205 [1] = test: Induction of apoptosis in human COLO205 cells assessed as viable cells level at 10 uM after 24 hrs by Annexin V/propidium iodide staining-based fluorescence microscopy
COLO 205 [2] = test: Induction of apoptosis in human COLO205 cells assessed as early apoptosis cells level at 10 uM after 24 hrs by Annexin V/propidium iodide staining-based fluorescence microscopy
COLO 205 [3] = test: Induction of apoptosis in human COLO205 cells assessed as late apoptosis cells level at 10 uM after 24 hrs by Annexin V/propidium iodide staining-based fluorescence microscopy
COLO 205 [4] = test: Induction of apoptosis in human COLO205 cells assessed as caspase 3/7 activation at 10 uM by FLICA
COLO 205 [5] = test: Induction of apoptosis in human COLO205 cells assessed as caspase 9 activation at 10 uM by FLICA
COLO 205 [6] = test: Induction of apoptosis in human COLO205 cells assessed as caspase 8 activation at 10 uM by FLICA
COLO 205 [7] = test: Induction of apoptosis in human COLO205 cells assessed as DNA fragmentation at 10 uM
COLO 205 [8] = test: Induction of apoptosis in human COLO205 cells assessed as necrotic apoptosis cells level at 10 uM after 24 hrs by Annexin V/propidium iodide staining-based fluorescence microscopy
COLO 205 [9] = test: Induction of apoptosis in human COLO205 cells at 10 uM after 24 hrs by Annexin V/propidium iodide staining-based fluorescence microscopy

CC[C@@]1(O)C(=O)OCc2c1cc1n(c2=O)Cc2cc3ccccc3nc2-1 [CAMPTOTHECIN] gave an Activity (COLO 205 [1]) of 40%, an Activity (COLO 205 [2]) of 42% and an Activity (COLO 205 [3]) of 17%. The Activity (COLO 205 [4]) was 62%, the Activity (COLO 205 [5]) was 19.5% and the Activity (COLO 205 [6]) was 23.5%. It also gave an Activity (COLO 205 [7]) of 80.5%, an Activity (COLO 205 [8]) of 0% and an Activity (COLO 205 [9]) of 53%.
